Laboratory results published in patent US12365696B2, “Small-molecule focal adhesion kinase (FAK) inhibitors” (DANA-FARBER CANCER INSTITUTE, INC., priority 2019, dated 2025).

Legend:
Assay type in all cases: binding
403 non-mutant kinases = test: KINOMEscan panel selectivity (S-Score, number of kinases engaged); settings: 10 μM; for S-Score (35): non-mutant kinases below 35% control divided by kinases examined
Description: Selectivity profiling of compound 3 among a panel of kinases was performed with KINOMEscan® as set forth below. The KINOMEscan® screening platform employs an active site-directed competition binding assay to quantitatively measure interactions between a test compound, e.g., compound 3, and more than 450 kinases and disease-relevant mutant variants.
Screening of compound 3 was conducted at a concentration of 10 μM by Eurofins DiscoverX. Activity is measured as the ability of compound 3 to displace the kinase from a solid support relative to a negative control (i.e., DMSO). The output is % control.
The selectivity score (S-Score) refers to the number of non-mutant kinases that display a % control below a specific number, divided by the number of non-mutant kinases that were examined.
Selectivity profiling of compound 5 among a panel of kinases was performed with KINOMEscan® as set forth below.

NEK11 = NEK11 (Homo sapiens (Human), UniProt Q8NG66); test: KINOMEscan; settings: NEK11, 10000 nM; read-out: Percent Control
Sequence of NEK11 (Q8NG66 whole entry): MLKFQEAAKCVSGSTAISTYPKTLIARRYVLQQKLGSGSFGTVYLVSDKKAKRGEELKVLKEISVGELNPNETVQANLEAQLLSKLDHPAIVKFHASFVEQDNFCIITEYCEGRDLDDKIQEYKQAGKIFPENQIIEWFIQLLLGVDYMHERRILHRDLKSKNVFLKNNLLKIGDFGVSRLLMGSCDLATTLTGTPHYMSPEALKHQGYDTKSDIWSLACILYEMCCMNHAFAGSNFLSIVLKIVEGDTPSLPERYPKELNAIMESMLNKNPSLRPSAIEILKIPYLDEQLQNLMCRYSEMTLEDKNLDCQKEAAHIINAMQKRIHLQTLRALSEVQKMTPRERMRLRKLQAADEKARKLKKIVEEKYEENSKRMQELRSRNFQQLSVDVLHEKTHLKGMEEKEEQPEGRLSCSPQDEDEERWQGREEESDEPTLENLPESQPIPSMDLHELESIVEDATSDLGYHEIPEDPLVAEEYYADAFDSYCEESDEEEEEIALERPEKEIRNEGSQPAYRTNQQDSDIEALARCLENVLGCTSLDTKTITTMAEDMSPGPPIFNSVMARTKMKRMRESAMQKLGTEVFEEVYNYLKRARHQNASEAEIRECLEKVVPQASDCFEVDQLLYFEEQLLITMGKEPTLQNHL

KIT(V559D, T670I) = KIT(V559D, T670I) (Homo sapiens (Human), UniProt P10721, T670I/V559D); test: KINOMEscan; settings: 10000 nM, read-out: Percent Control
MST4 = MST4 (Homo sapiens (Human), UniProt Q9P289); test: KINOMEscan; settings: MST4, 10000 nM; read-out: Percent Control
Sequence of MST4 (Q9P289 whole entry): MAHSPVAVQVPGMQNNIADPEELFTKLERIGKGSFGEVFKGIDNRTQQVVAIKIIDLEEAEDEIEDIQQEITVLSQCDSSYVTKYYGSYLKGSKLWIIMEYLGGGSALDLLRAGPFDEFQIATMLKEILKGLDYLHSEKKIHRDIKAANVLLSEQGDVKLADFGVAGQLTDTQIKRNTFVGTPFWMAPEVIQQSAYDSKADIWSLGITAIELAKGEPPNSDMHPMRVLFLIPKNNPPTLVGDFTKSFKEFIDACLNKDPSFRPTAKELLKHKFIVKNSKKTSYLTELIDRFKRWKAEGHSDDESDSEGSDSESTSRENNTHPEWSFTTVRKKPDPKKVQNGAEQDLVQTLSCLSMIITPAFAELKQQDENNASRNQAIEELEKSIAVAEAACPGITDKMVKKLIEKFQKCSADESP

PIK3CA(E542K) = PIK3CA(E542K) (Homo sapiens (Human), UniProt P42336, E542K); test: KINOMEscan; settings: 10000 nM, read-out: Percent Control
EPHA5 = EPHA5 (Homo sapiens (Human), UniProt P54756); test: KINOMEscan; settings: EPHA5, 10000 nM; read-out: Percent Control
EGFR(L858R) = EGFR(L858R) (Homo sapiens (Human), UniProt P00533, L858R); test: KINOMEscan; settings: 10000 nM, read-out: Percent Control
TSSK3 = TSSK3 (Homo sapiens (Human), UniProt Q96PN8); test: KINOMEscan; settings: TSSK3, 10000 nM; read-out: Percent Control
DDR1 = DDR1 (Homo sapiens (Human), UniProt Q08345); test: KINOMEscan; settings: DDR1, 10000 nM; read-out: Percent Control
[1] = target: RPS6KA5(Kin.Dom.1-N-terminal) (Homo sapiens (Human), UniProt O75582); test: KINOMEscan; settings: 10000 nM, read-out: Percent Control
BRSK2 = BRSK2 (Homo sapiens (Human), UniProt Q8IWQ3); test: KINOMEscan; settings: BRSK2, 10000 nM; read-out: Percent Control
Sequence of BRSK2 (Q8IWQ3 whole entry): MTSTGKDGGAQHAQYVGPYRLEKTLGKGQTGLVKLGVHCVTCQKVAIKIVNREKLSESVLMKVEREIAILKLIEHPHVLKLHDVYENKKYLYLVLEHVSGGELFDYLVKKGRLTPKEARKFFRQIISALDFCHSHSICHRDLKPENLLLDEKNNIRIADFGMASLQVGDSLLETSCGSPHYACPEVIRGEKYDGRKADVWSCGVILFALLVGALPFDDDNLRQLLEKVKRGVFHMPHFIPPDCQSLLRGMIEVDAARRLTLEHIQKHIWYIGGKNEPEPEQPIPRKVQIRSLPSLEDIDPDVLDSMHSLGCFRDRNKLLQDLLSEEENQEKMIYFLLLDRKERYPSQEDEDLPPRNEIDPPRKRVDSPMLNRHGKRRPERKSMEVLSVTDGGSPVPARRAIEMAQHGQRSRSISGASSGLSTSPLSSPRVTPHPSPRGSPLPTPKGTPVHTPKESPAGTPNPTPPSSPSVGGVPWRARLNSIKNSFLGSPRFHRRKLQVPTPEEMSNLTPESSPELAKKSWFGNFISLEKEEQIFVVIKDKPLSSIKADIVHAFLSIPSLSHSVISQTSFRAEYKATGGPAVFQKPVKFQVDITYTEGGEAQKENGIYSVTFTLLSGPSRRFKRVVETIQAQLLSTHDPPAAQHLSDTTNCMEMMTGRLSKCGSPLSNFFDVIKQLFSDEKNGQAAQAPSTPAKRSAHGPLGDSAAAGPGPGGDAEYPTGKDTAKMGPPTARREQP

CAMK1D = CAMK1D (Homo sapiens (Human), UniProt Q8IU85); test: KINOMEscan; settings: 10000 nM, read-out: Percent Control
Sequence of CAMK1D (Q8IU85 whole entry): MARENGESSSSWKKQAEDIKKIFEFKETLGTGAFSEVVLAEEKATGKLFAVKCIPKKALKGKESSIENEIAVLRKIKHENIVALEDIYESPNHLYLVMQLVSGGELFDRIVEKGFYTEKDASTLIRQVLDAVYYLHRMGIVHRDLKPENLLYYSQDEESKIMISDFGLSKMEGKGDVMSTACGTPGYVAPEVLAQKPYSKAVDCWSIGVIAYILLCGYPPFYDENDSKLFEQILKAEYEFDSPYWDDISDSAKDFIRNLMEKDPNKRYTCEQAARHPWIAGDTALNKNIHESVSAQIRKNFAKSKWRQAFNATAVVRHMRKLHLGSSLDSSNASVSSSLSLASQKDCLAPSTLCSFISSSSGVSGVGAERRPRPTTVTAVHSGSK

EPHA7 = EPHA7 (Homo sapiens (Human), UniProt Q15375); test: KINOMEscan; settings: EPHA7, 10000 nM; read-out: Percent Control
MARK3 = MARK3 (Homo sapiens (Human), UniProt P27448); test: KINOMEscan; settings: MARK3, 10000 nM; read-out: Percent Control
ERK3 = ERK3 (Homo sapiens (Human), UniProt Q16659); test: KINOMEscan; settings: ERK3, 10000 nM; read-out: Percent Control
SGK3 = SGK3 (Homo sapiens (Human), UniProt Q96BR1); test: KINOMEscan; settings: SGK3, 10000 nM; read-out: Percent Control
CDK7 = CDK7 (Homo sapiens (Human), UniProt P50613); test: KINOMEscan; settings: CDK7, 10000 nM; read-out: Percent Control
ICK = ICK (Homo sapiens (Human), UniProt Q9UPZ9); test: KINOMEscan; settings: 10000 nM, read-out: Percent Control
EPHA4 = EPHA4 (Homo sapiens (Human), UniProt P54764); test: KINOMEscan; settings: EPHA4, 10000 nM; read-out: Percent Control
YSK4 = YSK4 (Homo sapiens (Human), UniProt Q56UN5); test: KINOMEscan; settings: YSK4, 10000 nM; read-out: Percent Control
TLK1 = TLK1 (Homo sapiens (Human), UniProt Q9UKI8); test: KINOMEscan; settings: TLK1, 10000 nM; read-out: Percent Control
MARK4 = MARK4 (Homo sapiens (Human), UniProt Q96L34); test: KINOMEscan; settings: MARK4, 10000 nM; read-out: Percent Control
Sequence of MARK4 (Q96L34 whole entry): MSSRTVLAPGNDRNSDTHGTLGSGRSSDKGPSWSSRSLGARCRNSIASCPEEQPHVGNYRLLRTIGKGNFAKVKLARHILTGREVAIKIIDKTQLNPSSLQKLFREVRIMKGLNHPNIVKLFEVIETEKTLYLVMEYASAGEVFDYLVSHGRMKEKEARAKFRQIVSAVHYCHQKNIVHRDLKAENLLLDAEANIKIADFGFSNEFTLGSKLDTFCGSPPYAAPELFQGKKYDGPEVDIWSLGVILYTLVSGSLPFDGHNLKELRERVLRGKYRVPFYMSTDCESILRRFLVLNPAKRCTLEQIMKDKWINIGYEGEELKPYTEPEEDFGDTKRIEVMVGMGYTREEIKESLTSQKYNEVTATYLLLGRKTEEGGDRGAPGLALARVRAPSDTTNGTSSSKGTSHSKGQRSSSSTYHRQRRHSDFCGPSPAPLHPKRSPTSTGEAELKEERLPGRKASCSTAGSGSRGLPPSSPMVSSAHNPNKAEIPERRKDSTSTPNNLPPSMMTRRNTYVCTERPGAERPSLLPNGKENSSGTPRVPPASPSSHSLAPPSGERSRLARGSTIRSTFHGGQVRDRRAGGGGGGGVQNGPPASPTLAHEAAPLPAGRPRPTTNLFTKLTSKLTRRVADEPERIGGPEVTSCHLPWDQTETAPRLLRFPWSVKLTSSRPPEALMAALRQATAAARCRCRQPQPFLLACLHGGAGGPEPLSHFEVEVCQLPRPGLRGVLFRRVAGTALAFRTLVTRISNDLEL

FLT3(N841I) = FLT3(N841I) (Homo sapiens (Human), UniProt P36888, N841I); test: KINOMEscan; settings: 10000 nM, read-out: Percent Control
ALK(C1156Y) = ALK(C1156Y) (Homo sapiens (Human), UniProt Q9UM73, C1156Y); test: KINOMEscan; settings: 10000 nM, read-out: Percent Control
EGFR(L861Q) = EGFR(L861Q) (Homo sapiens (Human), UniProt P00533, L861Q); test: KINOMEscan; settings: 10000 nM, read-out: Percent Control
Sequence of EGFR(L861Q) (P00533 25-1210 L861Q): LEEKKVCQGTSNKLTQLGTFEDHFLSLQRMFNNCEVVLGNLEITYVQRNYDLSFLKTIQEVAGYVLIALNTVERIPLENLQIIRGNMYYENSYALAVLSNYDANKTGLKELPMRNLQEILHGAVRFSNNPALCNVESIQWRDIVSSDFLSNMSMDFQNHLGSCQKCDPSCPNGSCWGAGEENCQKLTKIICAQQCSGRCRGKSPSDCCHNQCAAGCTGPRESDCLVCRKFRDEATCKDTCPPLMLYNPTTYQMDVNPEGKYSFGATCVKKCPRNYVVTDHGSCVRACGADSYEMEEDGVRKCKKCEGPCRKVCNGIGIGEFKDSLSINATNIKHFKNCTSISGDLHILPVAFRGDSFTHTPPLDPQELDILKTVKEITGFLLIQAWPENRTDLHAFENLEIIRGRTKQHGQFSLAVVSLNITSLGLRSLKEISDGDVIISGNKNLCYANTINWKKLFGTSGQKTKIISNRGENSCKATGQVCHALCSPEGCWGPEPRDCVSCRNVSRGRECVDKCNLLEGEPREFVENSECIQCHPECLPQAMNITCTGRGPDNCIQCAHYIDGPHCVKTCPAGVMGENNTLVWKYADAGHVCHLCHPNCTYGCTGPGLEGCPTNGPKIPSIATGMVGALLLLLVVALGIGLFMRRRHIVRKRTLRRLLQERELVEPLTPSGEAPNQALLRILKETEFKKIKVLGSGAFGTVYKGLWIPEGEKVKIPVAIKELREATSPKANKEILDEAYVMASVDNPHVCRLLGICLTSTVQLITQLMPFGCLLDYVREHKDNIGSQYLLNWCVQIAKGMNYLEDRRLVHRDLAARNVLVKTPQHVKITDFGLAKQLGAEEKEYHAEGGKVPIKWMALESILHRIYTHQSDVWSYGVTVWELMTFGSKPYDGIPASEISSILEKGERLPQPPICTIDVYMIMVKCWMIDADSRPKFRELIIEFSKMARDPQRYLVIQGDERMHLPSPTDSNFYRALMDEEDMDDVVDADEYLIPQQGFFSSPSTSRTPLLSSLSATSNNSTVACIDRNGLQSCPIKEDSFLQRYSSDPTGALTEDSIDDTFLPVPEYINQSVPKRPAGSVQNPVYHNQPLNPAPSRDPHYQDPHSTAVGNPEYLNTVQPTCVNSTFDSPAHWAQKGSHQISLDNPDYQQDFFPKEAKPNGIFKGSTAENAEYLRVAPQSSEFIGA

YES = YES (Homo sapiens (Human), UniProt P07947); test: KINOMEscan; settings: 10000 nM, read-out: Percent Control
CDK3 = CDK3 (Homo sapiens (Human), UniProt Q00526); test: KINOMEscan; settings: CDK3, 10000 nM; read-out: Percent Control
CSNK1G2 = CSNK1G2 (Homo sapiens (Human), UniProt P78368); test: KINOMEscan; settings: CSNK1G2, 10000 nM; read-out: Percent Control
Sequence of CSNK1G2 (P78368 whole entry): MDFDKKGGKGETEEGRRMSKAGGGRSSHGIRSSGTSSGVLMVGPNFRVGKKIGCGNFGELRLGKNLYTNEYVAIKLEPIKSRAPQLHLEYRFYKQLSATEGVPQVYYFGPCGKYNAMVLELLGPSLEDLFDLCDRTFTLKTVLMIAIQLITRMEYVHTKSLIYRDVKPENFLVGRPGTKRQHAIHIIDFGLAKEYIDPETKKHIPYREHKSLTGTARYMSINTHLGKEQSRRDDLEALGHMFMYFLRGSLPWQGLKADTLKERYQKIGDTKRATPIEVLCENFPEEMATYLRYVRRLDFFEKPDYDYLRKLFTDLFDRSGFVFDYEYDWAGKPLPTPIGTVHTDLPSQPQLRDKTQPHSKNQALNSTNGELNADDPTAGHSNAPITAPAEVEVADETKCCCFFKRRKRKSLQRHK

FLT3-autoinhibited = FLT3-autoinhibited (Homo sapiens (Human), UniProt P36888); test: KINOMEscan; settings: 10000 nM, read-out: Percent Control
ACVR1 = ACVR1 (Homo sapiens (Human), UniProt Q04771); test: KINOMEscan; settings: ACVR1, 10000 nM; read-out: Percent Control
Sequence of ACVR1 (Q04771 21-509): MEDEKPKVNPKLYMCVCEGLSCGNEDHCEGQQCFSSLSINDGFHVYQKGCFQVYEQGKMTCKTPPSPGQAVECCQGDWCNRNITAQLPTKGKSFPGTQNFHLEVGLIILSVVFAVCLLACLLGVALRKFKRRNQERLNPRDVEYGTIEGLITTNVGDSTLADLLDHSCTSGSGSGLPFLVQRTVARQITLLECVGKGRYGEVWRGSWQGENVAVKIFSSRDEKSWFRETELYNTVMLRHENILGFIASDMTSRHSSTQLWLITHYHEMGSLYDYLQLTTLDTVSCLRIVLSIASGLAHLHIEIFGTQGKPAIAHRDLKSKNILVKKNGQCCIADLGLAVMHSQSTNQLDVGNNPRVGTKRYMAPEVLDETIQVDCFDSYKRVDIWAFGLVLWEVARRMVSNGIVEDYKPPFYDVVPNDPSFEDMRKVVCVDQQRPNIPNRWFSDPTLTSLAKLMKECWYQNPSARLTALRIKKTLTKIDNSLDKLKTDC

| SMILES | S-Score (35) (403 non-mutant kinases) | remaining binding at 10 µM (NEK11) [%] | remaining binding at 10 µM (KIT(V559D, T670I)) [%] | remaining binding at 10 µM (MST4) [%] | remaining binding at 10 µM (PIK3CA(E542K)) [%] | remaining binding at 10 µM (EPHA5) [%] | remaining binding at 10 µM (EGFR(L858R)) [%] | remaining binding at 10 µM (TSSK3) [%] | remaining binding at 10 µM (DDR1) [%] | remaining binding at 10 µM [1] [%] | remaining binding at 10 µM (BRSK2) [%] | remaining binding at 10 µM (CAMK1D) [%] | remaining binding at 10 µM (EPHA7) [%] | remaining binding at 10 µM (MARK3) [%] | remaining binding at 10 µM (ERK3) [%] | remaining binding at 10 µM (SGK3) [%] | remaining binding at 10 µM (CDK7) [%] | remaining binding at 10 µM (ICK) [%] | remaining binding at 10 µM (EPHA4) [%] | remaining binding at 10 µM (YSK4) [%] | also measured |
| --- | --- | --- | --- | --- | --- | --- | --- | --- | --- | --- | --- | --- | --- | --- | --- | --- | --- | --- | --- | --- | --- |
| COc1cc(N2CCC(N3CCN(C)CC3)CC2)ccc1Nc1ncc2c(n1)N(C)c1sc(C)nc1C(=O)N2 [Compound 3, 6-((2-methoxy-4-(4-(4-methylpiperazin-1-yl)piperidin-1-yl)phenyl)amino)-2,4-dimethyl-4,9-dihydro-10H-pyrimido[5,4-b]thiazolo[5,4-e][1,4]diazepin-10-one] | 0.02 | 100 | 86 | 100 | 100 | 65 | 79 | 98 | 89 | 70 | 78 | 98 | 71 | 96 | 89 | 100 | 94 | 100 | 87 | 100 | number of non-mutant kinases displaying <35% relative to control (403 non-mutant kinases; out of 403 non-mutant kinases): five; number of other kinases engaged with greater than 65% inhibition (403 non-mutant kinases; panel of 403 kinases): 4; remaining binding at 10 µM (TLK1): 90%; remaining binding at 10 µM (MARK4): 83%; remaining binding at 10 µM (FLT3(N841I)): 98%; remaining binding at 10 µM (ALK(C1156Y)): 100%; remaining binding at 10 µM (EGFR(L861Q)): 38%; remaining binding at 10 µM (YES): 72%; remaining binding at 10 µM (CDK3): 87%; remaining binding at 10 µM (CSNK1G2): 81%; remaining binding at 10 µM (FLT3-autoinhibited): 100%; remaining binding at 10 µM (ACVR1): 93% |
| COc1cc(N2CCC(N3CCN(C)CC3)CC2)ccc1Nc1ncc2c(n1)N(C)c1sc(C)nc1C(=O)N2C [Compound 5, 6-((2-methoxy-4-(4-(4-methylpiperazin-1-yl)piperidin-1-yl)phenyl)amino)-2,4,9-trimethyl-4,9-dihydro-10H-pyrimido[5,4-b]thiazolo[5,4-e][1,4]diazepin-10-one] | 0.042 | 100 | 95 | 100 | 93 | 95 | 100 | 98 | 100 | 91 | 91 | 86 | 97 | 81 | 100 | 100 | 100 | 100 | 68 | 93 | S(1) (403 non-mutant kinases): 0.005; S(10) (403 non-mutant kinases): 0.012; remaining binding at 10 µM (TLK1): 81%; remaining binding at 10 µM (MARK4): 87%; remaining binding at 10 µM (FLT3(N841I)): 83%; remaining binding at 10 µM (ALK(C1156Y)): 89%; remaining binding at 10 µM (EGFR(L861Q)): 100%; remaining binding at 10 µM (YES): 97%; remaining binding at 10 µM (CDK3): 100%; remaining binding at 10 µM (CSNK1G2): 80%; remaining binding at 10 µM (FLT3-autoinhibited): 99%; remaining binding at 10 µM (ACVR1): 93% |
